Source: PMC3746989 (ACS medicinal chemistry letters, 2013)

Columns and labels:
[1] = In vivo mouse single-dose PK, brain and plasma exposure; conditions: for brain exposure / drug levels in brain: mice, oral dosing
ScN2a-cl3 cells = assay: Cell viability / compound toxicity with fluorescent probe calcein-AM; format: cell-based, mouse
[2] = system: PrP^Sc in RML prion-infected mouse neuroblastoma (ScN2a-cl3) cells; format: cell-based; conditions: for antiprion activity: relative to the 4-bromophenyl amide 10
[3] = mouse, oral 10 mg/kg, brain, relative to 21

CC(C)N1CCN(c2ccc(NC(=O)c3ccc(-c4ccccn4)cc3)c(F)c2)CC1 [Compound 26]
metabolic stability in hepatic microsomal preparations: excellent metabolic stability
brain exposure / drug levels in brain [1]: excellent drug levels in the brains
Calcein AM LD50 (ScN2a-cl3 cells): >10,000 nM

CN1CCN(c2ccc(NC(=O)c3ccc(-c4ccccc4)cc3)cc2)CC1 [Compound 15]
fold increase in antiprion potency over compound 7 ([2]; relative to original lead 7): 4 fold
Calcein AM LD50 (ScN2a-cl3 cells): >5000 nM

CCN1CCN(c2ccc(NC(=O)c3ccc(-c4ccncc4)cc3)cc2)CC1 [Compound 22]
Calcein AM LD50 (ScN2a-cl3 cells): >10,000 nM

CC(C)N1CCN(c2ccc(NC(=O)c3ccc(-c4ccccn4)cc3)nc2)CC1 [Compound 24]
metabolic stability in hepatic microsomal preparations: excellent metabolic stability
brain exposure / drug levels in brain [1]: excellent drug levels in the brains
Calcein AM LD50 (ScN2a-cl3 cells): >10,000 nM

CCN1CCN(c2ccc(NC(=O)c3ccc(-c4ccccn4)cc3)cc2)CC1 [Compound 20]
brain exposure / drug levels in brain [1]: excellent drug levels in the brains
fold higher brain AUC than 21 [1, 3]: > 7 fold
fold higher brain Cmax than 21 [1, 3]: > 4 fold
Calcein AM LD50 (ScN2a-cl3 cells): >10,000 nM

CC(C)N1CCN(c2ccc(NC(=O)c3ccc(-c4ccccn4)cc3)cc2F)CC1 [Compound 27]
metabolic stability in hepatic microsomal preparations: excellent metabolic stability
brain exposure / drug levels in brain [1]: excellent drug levels in the brains
Calcein AM LD50 (ScN2a-cl3 cells): >10,000 nM

CCN1CCN(c2ccc(NC(=O)c3ccc(-c4cccnc4)cc3)cc2)CC1 [Compound 21]
Calcein AM LD50 (ScN2a-cl3 cells): >10,000 nM

CC(C)N1CCN(c2ccc(NC(=O)c3ccc(-c4ccccn4)cc3)cn2)CC1 [Compound 25]
Calcein AM LD50 (ScN2a-cl3 cells): >10,000 nM

CC(=O)c1ccc(NC(=O)c2ccc(-c3ccccc3)cc2)cc1 [Compound 14]
fold improvement in potency, 14 versus 6 [2]: 10 fold

CCOc1cccc(C(=O)Nc2ccc(N3CCN(C)CC3)cc2)c1 [Compound 8]
antiprion activity [2]: inactivity

CC(C)N1CCN(c2ccc(NC(=O)c3ccc(-c4ccccn4)cc3)cc2)CC1 [Compound 23]
brain exposure / drug levels in brain [1]: much lower brain exposure than either 16 or 20
Calcein AM LD50 (ScN2a-cl3 cells): >10,000 nM

CC(C)N1CCN(c2ccc(NC(=O)c3ccc(-c4ccccc4)cc3)cc2)CC1 [Compound 17]
metabolic stability in hepatic microsomal preparations: excellent metabolic stability
brain exposure / drug levels in brain [1]: excellent drug levels in the brains
Calcein AM LD50 (ScN2a-cl3 cells): >10,000 nM

CN1CCN(c2ccc(NC(=O)c3cccc(Br)c3)cc2)CC1 [Compound 9]
antiprion activity [2]: inactivity
